In patent publication US11655236B2, “Activity-based probe compounds, compositions, and methods of use” (THE BOARD OF TRUSTEES OF THE LELAND STANFORD JUNIOR …, priority 2013, dated 2023):

System: cysteine cathepsins
Experiment: Inhibition of probe labeling in living RAW cells by JPM-OEt pretreatment
Format: cell-based, mouse
Conditions: pre-treatment of living RAW cells with JPM-OEt (50 μM, 1 hr); labeling by qABP 8
Description: RAW cells were cultured in DMEM (GIBCO) supplemented with 10% fetal bovine serum (FBS; GIBCO), 100 units/mL penicillin and 100 μg/mL streptomycin (GIBCO). 4T1 cells (ATCC) were cultured in RPMI (GIBCO) supplemented with 10% fetal bovine serum (FBS; GIBCO), 100 units/mL penicillin and 100 μg/mL streptomycin (GIBCO). All cells were cultured in a 5% CO2 humidified incubator at 37° C. For intact cell labeling, cells were exposed to probe (500× in DMSO) in culture media and incubated for 2 hr at 37° C., unless stated otherwise. Where indicated the cells were preincubated for 1 hr with the inhibitor JPM-OEt (500× in DMSO) or exposed to mouse serum (1 μl probe stock solution in DMSO added to 9 μl serum) for 4 hr before addition to the cells. After labeling, the cells were washed with PBS and resuspended in hypotonic lysis buffer (50 mM PIPES pH 7.4, 10 mM KCl, 5 mM MgCl2, 2 mM EDTA, 4 mM DTT, and 1% NP-40) and put on ice for 15 min, centrifuged at 4° C. for 30 min and supernatants were collected, and protein concentration was determined using a BCA kit (pierce). […] Labeling intensities were quantified using Image J software. […] After 15 min on ice and centrifugation at 4° C. for 30 min the supernatants were collected, and protein concentration was determined using a BCA kit (pierce). […] 4×SDS-sample buffer was added and the protein was denatured for 3 min at 100° C. and analyzed as described above. […]

JPM-OEt
blocking of probe labeling: more than 90%
